This passage reports TGI and GI50 results from PubChem BioAssay (NCI).

Some test systems named below: NCI/ADR-RES ovarian; SNB-75 CNS; UACC-257 melanoma; HT29 colon; SR leukemia; BT-549 breast; HOP-62 NSCLC; SK-MEL-28 melanoma; MDA-MB-231 breast; M14 melanoma.
What all share (assay): NCI anticancer screen, dose series, 48 h

Molecules are shown by their SMILES.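 Results reflect a 48-hour exposure of cells in 96-well plates to compound at five concentrations. GI50 marks 50% less growth. TGI denotes the concentration required for complete inhibition of growth.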

Take `O=C1C=CC(=O)N1c1ccc(I)cc1`: the TGI in the experiment with NCI/ADR-RES ovarian amounted to 82.3 µM; in the experiment with SNB-75 CNS, 44.1 µM; in the experiment on UACC-257 melanoma, 32.5 µM; in the experiment with HT29 colon it was 45.1 µM; with SR leukemia, 45.5 µM; with BT-549 breast it was 36 µM. Also, the TGI came out at 38.2 µM in the experiment with HOP-62 NSCLC, 35.3 µM in the experiment with SK-MEL-28 melanoma, 52.7 µM in the experiment with MDA-MB-231 breast and 31.2 µM with M14 melanoma.

Take `FC(F)(F)c1ccc(-c2ncc(-c3ccc(C(F)(F)F)cc3)c(NCc3cc(C(F)(F)F)cc(C(F)(F)F)c3)n2)cc1`: the GI50 was 4.62 µM in the experiment with NCI/ADR-RES ovarian; 4.17 µM in the experiment with SNB-75 CNS; 5.29 µM with UACC-257 melanoma; 6.95 µM in the experiment with HT29 colon; 5.07 µM with SR leukemia; 7.91 µM in the experiment with BT-549 breast. In addition, the GI50 was 5.16 µM in the experiment with HOP-62 NSCLC, 5.85 µM with SK-MEL-28 melanoma, 3.81 µM in the experiment on MDA-MB-231 breast and 4.38 µM in the experiment on M14 melanoma. Also, the TGI in the experiment on NCI/ADR-RES ovarian is above 100 µM; in the experiment with SNB-75 CNS, 73 µM; in the experiment with UACC-257 melanoma it was 44.4 µM; with HT29 colon, above 100 µM; in the experiment with SR leukemia, above 100 µM; with BT-549 breast, above 100 µM. Also, the TGI in the experiment on HOP-62 NSCLC was above 100 µM; in the experiment with SK-MEL-28 melanoma, above 100 µM; in the experiment on MDA-MB-231 breast it was 14.8 µM; in the experiment with M14 melanoma it was above 100 µM.

Consider `COc1cc(/C=C/C(=O)c2c(C)nc3ccccc3c2C)ccc1OCCCCOc1cc2c(cc1OC)C(=O)N1CCC[C@H]1C=N2`, for which the GI50 in the experiment with NCI/ADR-RES ovarian was 3.06 µM; with SNB-75 CNS, 0.334 µM; in the experiment on UACC-257 melanoma, 0.261 µM; in the experiment with HT29 colon it was 0.403 µM; in the experiment with SR leukemia, 0.325 µM; in the experiment with BT-549 breast, 0.188 µM. For the same compound, the GI50 was 1.71 µM in the experiment on HOP-62 NSCLC, 0.214 µM in the experiment on SK-MEL-28 melanoma, 0.606 µM with MDA-MB-231 breast and 1.16 µM in the experiment on M14 melanoma. Besides, the TGI in the experiment with NCI/ADR-RES ovarian was 40.4 µM; in the experiment on SNB-75 CNS, 0.929 µM; in the experiment with UACC-257 melanoma, 0.822 µM; in the experiment with HT29 colon it was 2.02 µM; with SR leukemia, above 100 µM; in the experiment on BT-549 breast, 0.482 µM. For the same compound, the TGI was 6.93 µM with HOP-62 NSCLC, 0.647 µM in the experiment with SK-MEL-28 melanoma, 3.51 µM with MDA-MB-231 breast and above 100 µM with M14 melanoma.

In the case of `Cc1cc(=O)oc2cc(OC(=O)Nc3ccccc3)ccc12`, the TGI in the experiment with NCI/ADR-RES ovarian is above 100 µM; in the experiment with SNB-75 CNS it was above 100 µM; in the experiment with UACC-257 melanoma, above 100 µM; in the experiment with HT29 colon it was above 100 µM; in the experiment with SR leukemia, 83.5 µM; with BT-549 breast, above 100 µM. Besides, the TGI in the experiment on HOP-62 NSCLC, with SK-MEL-28 melanoma, in the experiment on MDA-MB-231 breast and in the experiment on M14 melanoma was above 100 µM throughout.

Take `CCCCN(CC)CCCCCCCCCCN1CCCc2cc(OC)ccc21`: the GI50 in the experiment with NCI/ADR-RES ovarian is 2.07 µM; with SNB-75 CNS, 3.02 µM; with UACC-257 melanoma, 3.34 µM; in the experiment on HT29 colon, 1.46 µM; with SR leukemia, 1.94 µM; in the experiment on BT-549 breast, 3.63 µM. The GI50 was 2.69 µM in the experiment on HOP-62 NSCLC, 2.92 µM with SK-MEL-28 melanoma, 2.26 µM in the experiment on MDA-MB-231 breast and 2.11 µM with M14 melanoma. The TGI stood at 6.15 µM in the experiment with NCI/ADR-RES ovarian; 11 µM with SNB-75 CNS; 9.2 µM in the experiment with UACC-257 melanoma; 4.29 µM in the experiment on HT29 colon; 5.56 µM in the experiment on SR leukemia; 12.5 µM in the experiment on BT-549 breast. Further, the TGI stood at 10.2 µM in the experiment with HOP-62 NSCLC, 7.33 µM in the experiment on SK-MEL-28 melanoma, 7.04 µM in the experiment with MDA-MB-231 breast and 4.99 µM in the experiment with M14 melanoma.

Turning to `O=c1[nH]c(F)nc2c1ncn2C1OC(CO)C(O)C1O` (stereo not drawn), the GI50 in the experiment on NCI/ADR-RES ovarian, in the experiment on SNB-75 CNS, in the experiment with UACC-257 melanoma, with SR leukemia, in the experiment with BT-549 breast and with HOP-62 NSCLC was above 100 µM in each case. Besides, the GI50 in the experiment with SK-MEL-28 melanoma, in the experiment on MDA-MB-231 breast and in the experiment with M14 melanoma was above 100 µM in each case. Besides, the TGI with NCI/ADR-RES ovarian, in the experiment on SNB-75 CNS, with UACC-257 melanoma, with SR leukemia, in the experiment on BT-549 breast and in the experiment with HOP-62 NSCLC was above 100 µM in each case. Also, the TGI with SK-MEL-28 melanoma, in the experiment on MDA-MB-231 breast and in the experiment on M14 melanoma was above 100 µM each time.

Turning to `CCC(C)CC(C)C(=O)c1c(O)ccn(O)c1=O` (stereo not drawn), the GI50 was 0.395 µM in the experiment with NCI/ADR-RES ovarian; 4.12 µM in the experiment with SNB-75 CNS; 2.52 µM with UACC-257 melanoma; 27.2 µM in the experiment on HT29 colon; 0.498 µM in the experiment on SR leukemia; 2.56 µM in the experiment on BT-549 breast. Further, the GI50 is 1.98 µM in the experiment on HOP-62 NSCLC, 2.27 µM in the experiment on SK-MEL-28 melanoma, 1.04 µM with MDA-MB-231 breast and 1.61 µM in the experiment on M14 melanoma. Moreover, the TGI is 5.15 µM with NCI/ADR-RES ovarian; above 100 µM with SNB-75 CNS; 8.38 µM in the experiment on UACC-257 melanoma; above 100 µM with HT29 colon; 18.3 µM with SR leukemia; 37.9 µM in the experiment with BT-549 breast. Moreover, the TGI in the experiment on HOP-62 NSCLC is above 100 µM; with SK-MEL-28 melanoma, above 100 µM; with MDA-MB-231 breast, above 100 µM; with M14 melanoma, 15 µM.

With `O=C1c2cccnc2C(=O)c2c1c(C(=O)OCCc1ccccn1)c1ccccn21`, the GI50 with NCI/ADR-RES ovarian is 0.0252 µM; in the experiment on SNB-75 CNS, below 0.0153 µM; with UACC-257 melanoma, 0.152 µM; with HT29 colon, 1.54 µM; in the experiment on SR leukemia, below 0.01 µM; with BT-549 breast, 0.0671 µM. Also, the GI50 in the experiment on HOP-62 NSCLC is below 0.01 µM; in the experiment on SK-MEL-28 melanoma, 0.0749 µM; in the experiment with MDA-MB-231 breast, 1.48 µM; in the experiment on M14 melanoma, 0.0262 µM. The TGI in the experiment on NCI/ADR-RES ovarian is 1.15 µM; with SNB-75 CNS, 1.71 µM; in the experiment on UACC-257 melanoma, 0.583 µM; in the experiment on HT29 colon, 3.35 µM; in the experiment on SR leukemia it was above 100 µM; in the experiment on BT-549 breast, 2.11 µM. The TGI in the experiment with HOP-62 NSCLC is 0.326 µM; in the experiment with SK-MEL-28 melanoma, 1.55 µM; in the experiment on MDA-MB-231 breast, above 100 µM; with M14 melanoma it was 0.33 µM.
